Assay [1] concerns AKT phosphorylation (p-AKT Ser 473) in Ramos B-lymphocyte cell line. The experiment in a line: Mechanistic on-target cell assay: flow cytometry of AKT phosphorylation after anti-human IGM stimulation. The format is cell-based. Here is the method: Mechanistic-On Target Cell Assay
The reaction was stopped by fixing the cells with Paraformaldehyde 4% (final) for 10 minutes at room temperature. Cells were washed once with Phosphate Buffer Saline (PBS), permabilized in PBS-Triton X-100 0.2% for 15 minutes at room temperature washed twice with PBS and once with PBS-4% serum. […] Cells were washed twice in PBS and resuspended in PBS. The cell suspension was passed on a FC500 flow cytometer (Beckman Coulter), gating on the IGM positive cells and measuring the AKT phosphorylation.
In general terms: Flow cytometry measures light scatter and fluorescence of single cells or particles in a stream.

The subject of assay [2] is 4 PI3K isoforms (Human recombinant GST-PI3K). The experiment in a line: PI3K scintillation proximity assay, best IC50 obtained with the four isoforms (alpha, beta, delta, gamma). The format is biochemical. To be noted: best IC50 obtained with the four isoforms of PI3K; read-out: Best potency measured on the 4 PI3K isoforms. Background: Scintillation proximity formats need no separation of bound from free tracer.

The subject of the next assay is Class I PI3-kinases. To be noted: each of the Class I PI3-kinases, cited from earlier work.
Another assay has as its target CK2 protein kinase (Homo sapiens (Human), UniProt P68400). The conditions noted are these: cited from earlier work.

Where two headings read alike, the source gives them in different places.

Sequence of CK2 protein kinase (P68400 whole entry): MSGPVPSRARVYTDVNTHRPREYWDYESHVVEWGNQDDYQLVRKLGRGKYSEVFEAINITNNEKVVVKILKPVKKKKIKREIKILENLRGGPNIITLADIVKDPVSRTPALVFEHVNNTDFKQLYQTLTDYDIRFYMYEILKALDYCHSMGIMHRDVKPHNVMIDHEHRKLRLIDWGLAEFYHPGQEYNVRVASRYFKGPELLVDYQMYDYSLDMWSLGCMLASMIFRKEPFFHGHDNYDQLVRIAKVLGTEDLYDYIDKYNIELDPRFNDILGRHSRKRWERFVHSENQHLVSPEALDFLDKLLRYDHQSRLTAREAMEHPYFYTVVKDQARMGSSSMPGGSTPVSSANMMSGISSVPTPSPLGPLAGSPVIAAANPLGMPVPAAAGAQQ

As to `COc1cccc2c1S(=O)(=O)Cc1c(C(=O)N3CCOCC3)nn(-c3ccccc3)c1-2` [Example 1, 6-methoxy-3-(morpholin-4-ylcarbonyl)-1-phenyl-1,4-dihydrothiochromeno[4,3-c]pyrazole 5,5-dioxide], the IC50 is 570 nM in assay [1] and 459 nM in assay [2].

Consider `COC[C@H]1OC(=O)c2coc3c2[C@@]1(C)C1=C(C3=O)[C@@H]2CCC(=O)[C@@]2(C)C[C@H]1OC(C)=O` [Wortmannin], for which, in the assay on Class I PI3-kinases (read-out: IC50 against each of the various Class I PI3-kinases), the IC50 is 1 to 10 nM.

As to `O=c1cc(N2CCOCC2)oc2c(-c3ccccc3)cccc12` [LY294002], the IC50 in the assay with Class I PI3-kinases (read-out: IC50 against each of these PI3-kinases) is 15000 to 20000 nM; on CK2 protein kinase it was 5000 to 10000 nM.

For the compound `Cc1ccc(-n2nc(C(=O)N3CCOCC3)c3c2-c2ccccc2S(=O)(=O)C3)cc1` [Example 7, 1-(4-methylphenyl)-3-(morpholin-4-ylcarbonyl)-1,4-dihydrothiochromeno[4,3-c]pyrazole 5,5-dioxide], the IC50 in assay [1] turned out to be 976 nM; in assay [2], 690 nM.

For `O=C(c1nn([C@@H]2CCCN(C3CCOCC3)CC2)c2c1CS(=O)(=O)c1ccccc1-2)N1CCOCC1` (single isomer, unassigned) [Example 400], the IC50 in assay [1] is 888 nM; in assay [2], 104 nM.

(Values after patent US9073940B2, “Tricyclic pyrazol amine derivatives” (MERCK SERONO SA, priority 2009, dated 2015).)
